Assay results: patent US20100215710A1, “Beta-2 Adrenergic Receptor Agonists and Antagonists and Modulation of Wound Healing” (The Regents of the University of California, priority 2005, published 2010)

Experiments:
[1] = cited from earlier work
human keratinocytes [2] = assay: Single cell migration assay, keratinocytes (clenbuterol, OA); type: cell-based; settings: 1 μM clenbuterol, one-hour period, vs control
Description: All single cell migration assays were performed on cells plated on glass cover-slips inserted into 35 mm plastic dishes (MatTek Corp., Ashland, Mass.) that had been coated for 1 hour at 37° C. with 60 μg/ml collagen L Cells were plated onto the collagen-coated glass cover-slips at a density of 250 cells/mm^2 for 3-6 hours at 37° C. Cells were either untreated (control), pre-treated with 10 nM okadaic acid (OA) (10 nM) for 45 minutes prior to the addition of OA (10 nM) and clenbuterol (1 μM) (OA/Clen) or treated with either OA or clenbuterol (1 μM) alone at time 0. The dishes were inserted into metal plates, maintained at 37° C., on inverted Nikon Diaphot microscopes to monitor single cell migration. Time-lapse images of the cell migratory response were digitally captured every 10 minutes over a one-hour period by Q-Imaging Retiga-EX cameras (Burnaby, BC, Canada) controlled by a custom automation written in Improvision Open Lab software (Lexington, Mass.) on a Macintosh G4. After each cell's center of mass was tracked using the Open Lab software, migration speed and distance were calculated and imported to Excel (Microsoft Corporation, Redmond, Wash.). Significance was taken as p<0.01, using Student's t test (unpaired) to compare the means of the control and β-AR agonist-treated cell populations.
Keratinocytes were plated onto collagen-coated glass cover-slips at a concentration of 250 cells/mm^2 in KGM for 3-6 hours at 37° C. The migration of each single cell was monitored over a one-hour period, and the results were analyzed in excel as described. The speed of migration ([…]) is represented graphically in FIG. 1 Panel C, control n=57, clenbuterol n=57, OA n=60, OA-clenbuterol n=44. The data are representative of three independent experiments with at least two different keratinocyte strains. * P<0.01 between β-AR agonist and controls; #P<0.01 between OA-clenbuterol and clenbuterol alone.

human keratinocytes [3] = assay: Scratch assay, confluent keratinocyte cultures (clenbuterol); type: cell-based; settings: 1 μM clenbuterol
Description: Human keratinocytes were isolated from neonatal foreskins as reported previously (Isseroff et al. (1987) Conversion of linoleic acid into arachidonic acid by cultured murine and human keratinocytes. J Lipid Res 28:1342-1349) and cultured using a modification of the method of Rheinwald and Green (Rheinwald and Green (1975) Serial cultivation of strains of human epidermal keratinocytes: the formation of keratinizing colonies from single cells. Cell 6:331-343). […]
Cells were grown to confluence on cover-slips (Fisher Scientific, Pittsburgh, Pa.) coated with 60 μg/ml Collagen I (Vitrogen 100, Collagen Corp., Palo Alto, Calif.). […] The area of the wound was determined using NIH Image 1.6 and the percent wound healing calculated by dividing the area of the wound at time X by the area of the wound at time 0 and multiplying by 100. […]
Keratinocytes were grown to confluence on collagen-coated glass cover-slips in the absence (control) or presence of 1 μM clenbuterol. […] Representative photographs of images at time 40 hours are shown in FIG. 1 Panel A. The percent wound healing was calculated and is represented graphically in FIG. 1 Panel B; control wounds are indicated by circles, clenbuterol treated by squares. […]

human keratinocytes [4] = assay: Scratch wounding of confluent keratinocytes with epinephrine; type: cell-based
Text: (§1) Since burn wounded patients have elevated levels of the circulating β2-AR activator epinephrine, whether blockade of β2-ARs increases keratinocyte migration and has the potential to accelerate burn wound re-epithelialization was examined.

[5] = test system: cultured human keratinocytes; assay: Keratinocyte migratory speed with epinephrine at post-burn levels; type: cell-based
Text: as §1

human skin burn wounds = assay: Ex vivo model of burn wound healing in excised human skin; type: cell-based; settings: for burn wound re-epithelialization status: 10 μm, day ten after the burn wound, control did not fully re-epithelialize
Description: An ex vivo model of burn wound healing was developed. A heated brass rod was applied to excised human skin, obtained and maintained basically as described above in Example 1. Burn wounds were treated with β-AR agonist (10 μm isoproterenol) or β-AR antagonist (10 μm timolol). […] Images were taken at 40× magnification.

[6] = test system: corneal epithelial wounds; assay: Corneal epithelial wound healing in vivo in β2-AR +/+ or −/− mice
Description: Using male β2-AR +/+ or β2-AR −/− mice, 2 mm diameter circular corneal epithelial wounds (OD) were created using a crescent blade. The corneas were treated topically with Balanced Salt Solution (BSS), BSS with 1% isoproterenol, or BSS with 0.5% timolol, and the wound healing was monitored stereomicroscopically using fluorescein.

human skin wounds = assay: Human skin wound healing assay (explant culture, 10% serum); type: cell-based; settings: isoproterenol-treated wounds
Text: A wound healing model developed by Kratz (Kratz (1998) Modeling of wound healing processes in human skin using tissue culture. Microsc Res Tech 42:345-350) was adapted. Normal human skin was obtained from routine breast reductions or abdominoplasties under an approved exemption granted by the Internal Review Board at University of California, Davis. Under sterile conditions, excess subcutaneous fat was trimmed from 6″×3″ sections of skin prior to stretching and pinning onto sterile cork board. A 3 mm punch (Sklar Instruments, West Chester, Pa.) was used to make wounds in the epidermis and into the superficial dermis and the 3 mm discs of skin were excised using sterile scissors. 6 mm skin discs, with the 3 mm epidermal wound in the center, were excised using a 6 mm biopsy punch (SMS Inc., Columbia, Md.). […] Re-epithelialization was determined using light microscopy. […] Measuring the linear distance covered by new epithelium and dividing that by the linear distance between the original wound edges determined the percentage of re-epithelialization. […]
Wounds, 3 mm in diameter, were generated in excised human skin, cultured in the presence or absence of 10 μM isoproterenol, fixed and stained every day after wounding as described. Re-epithelialization was determined using light microscopy. […]

β2-AR = assay: Western blot of β2-AR in scratch wounded keratinocyte cultures; type: cell-based, human; settings: addition of timolol
Text: as §1

CC(C)(C)NCC(O)COc1cccc2c1CC(O)C(O)C2 (stereo not shown) [Nadolol, nadolol]
lipid solubility [1]: low

CC(C)(C)NCC(O)c1cc(Cl)c(N)c(Cl)c1 (stereo not shown) [clenbuterol]
reduction of keratinocyte migratory speed (human keratinocytes [2]): 45%
time required for scratch wounds to heal (human keratinocytes [3]): significantly increases
percent wound healing of scratch wounds (human keratinocytes [3]; 40 hours after wounding, control wounds completely healed): 40%

CNC[C@H](O)c1ccc(O)c(O)c1 [epinephrine]
reduction of scratch wound healing (human keratinocytes [4]; epinephrine pretreatment): 70%
decrease in keratinocyte migratory speed ([5]; epinephrine 10 nM): 75%

CC(C)NCC(O)c1ccc(O)c(O)c1 (stereo not shown) [isoproterenol]
delay of re-epithelialization (human skin burn wounds; 10 μm isoproterenol, day ten after the burn): 14%
burn wound re-epithelialization status (human skin burn wounds): did not fully re-epithelialize
delay of wound healing (rate, linear phase) ([6]; β2-AR +/+ mice, topical BSS with 1% isoproterenol): ~80%
delay of wound healing ([6]; β2-AR −/− mice, topical BSS with 1% isoproterenol): but not in β2-AR −/− mice
re-epithelialization of human skin wounds (human skin wounds): significant delay

CC(C)(C)NC[C@H](O)COc1nsnc1N1CCOCC1 [timolol]
acceleration of scratch wound healing (human keratinocytes [4]; timolol added to epinephrine): 20%
effect on epinephrine-reduced scratch wound healing (human keratinocytes [4]; timolol added to epinephrine): reversed the effects of epinephrine
enhancement of re-epithelialization (human skin burn wounds; 10 μm timolol, day ten after the burn): 37%
burn wound re-epithelialization status (human skin burn wounds): fully re-epithelialized
rate of healing ([6]; β2-AR +/+ mice, topical BSS with 0.5% timolol): increased the rate of healing significantly
increase in rate of healing ([6]; β2-AR −/− mice, topical BSS with 0.5% timolol): but not in β2-AR −/− mice
migratory speed of epinephrine-treated keratinocytes ([5]; timolol 10 μM added to epinephrine 10 nM): restored the migratory speed to control levels
β2-AR downregulation one hour after the scratch (β2-AR): delayed
